Legend:
winter wheat [1] = test: Test E winter wheat; assay type: in vivo, Triticum aestivum; details: Preemergence
winter barley = test: Test E winter barley; assay type: in vivo, Hordeum vulgare; details: Preemergence
wild oat [2] = test: Test B pre/postemergence wild oat; assay type: in vivo, Avena fatua; details: for Plant response rating, Wild oats: Rate 250 g/ha
How it was run: (§1)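 Test chemicals in a non-phytotoxic solvent mixture with surfactant were sprayed preemergence onto planted seeds and postemergence onto plants 2 to 18 cm tall (1- to 4-leaf stage). After twelve to sixteen days in a greenhouse, injury was visually rated against untreated controls from 0 (no effect) to 10 (complete control).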

surinam grass = test: Test D surinam grass; assay type: in vivo, Brachiaria decumbens; details: Preemergence, 0 to 100 scale; for Surinam grass plant response rating: 0 no injury, 100 complete control
How it was run: (§2)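 Weed seeds planted in sandy loam; species kept apart in individual pots or compartments. Preemergence tests: treatment to soil surface within one day. Greenhouse growth, then visual injury scoring at 14–21 days (0–100).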

Johnson grass = test: Test D Johnson grass; assay type: in vivo, Sorghum halepense; details: Preemergence, 0 to 100 scale
How it was run: as §2

tall mallow = test: Test D tall mallow; assay type: in vivo, Malva sylvestris; details: Preemergence, 0 to 100 scale; for Tall Mallow plant response rating: 0 no injury, 100 complete control
How it was run: as §2

wild oat [3] = test: Test E wild oat; assay type: in vivo, Avena fatua; details: Preemergence
smallflower flatsedge = test: Test B flood test smallflower flatsedge; assay type: in vivo, Cyperus difformis
How it was run: (§3)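 Plants were grown to the 2-leaf stage before treatment with test chemical, then held in a greenhouse for twelve to sixteen days. Injury was visually rated against untreated controls on a 0–10 scale, where 0 is no effect and 10 is complete control.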

green foxtail = test: Test E green foxtail; assay type: in vivo, Setaria viridis; details: Preemergence
Alexandergrass = test: Test D Alexandergrass; assay type: in vivo, Brachiaria plantaginea; details: Preemergence, 0 to 100 scale
How it was run: as §2

blackgrass [4] = test: Test B pre/postemergence blackgrass; assay type: in vivo, Alopecurus myosuroides
How it was run: as §1

bamyardgrass = test: Test B flood test barnyardgrass; assay type: in vivo, Echinochloa crus-galli
How it was run: as §3

Italian ryegrass = test: Test E Italian ryegrass; assay type: in vivo, Lolium multiflorum; details: Preemergence
blackgrass [5] = test: Test E blackgrass; assay type: in vivo, Alopecurus myosuroides; details: Preemergence
winter wheat [6] = test: Test E winter wheat; assay type: in vivo, Triticum aestivum; details: Postemergence
How it was run: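 Plants were grown under normal greenhouse practice; for postemergence, in sandy loam soil mixed 60:40 with potting mix, treated at the 1- to 4-leaf stage. The compound was in a non-phytotoxic solvent carrying a surfactant. After roughly 21 to 28 days plants were scored visually against untreated plants.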

rice = test: Test B flood test rice; assay type: in vivo, Oryza sativa
How it was run: as §3

[7] = Rate 62 g/ha, 0 to 100 scale, 0 no effect, 100 complete control
[8] = Rate 125 g/ha, 0 to 100 scale (0 no effect, 100 complete control)
[9] = Postemergence, Rate 125 g/ha, scale of 0 to 10 where 0 is no effect and 10 is complete control
[10] = Preemergence, Rate 62 g/ha, scale 0 to 10 (0 no effect, 10 complete control)
[11] = Preemergence, Rate 500 g/ha, scale 0 to 10 (0 no effect, 10 complete control)
[12] = Rate 62 g/ha, Postemergence, scale of 0 to 10 where 0 is no effect and 10 is complete control
[13] = Rate 500 g/ha, Postemergence, scale 0 to 10, 0 no effect, 10 complete control
[14] = Rate 64 g/ha, 0 no injury, 100 complete control
[15] = Rate 125 g/ha, 0 no injury, 100 complete control
[16] = Postemergence (flood test species), Rate 125 g/ha, scale of 0 to 10 where 0 is no effect and 10 is complete control
[17] = Rate 62 g/ha, Postemergence section, flood test species, scale of 0 to 10 where 0 is no effect and 10 is complete control
[18] = Rate 250 g/ha, Postemergence (flood test), scale 0 to 10, 0 is no effect, 10 is complete control
[19] = Rate 250 g/ha, headed Pre-emergence (flood test species), scale 0 to 10 (0 no effect, 10 complete control)
[20] = Rate 500 g/ha, headed Pre-emergence (flood test species), scale 0 to 10 (0 no effect, 10 complete control)
[21] = Rate 500 g/ha, listed under Postemergence (flood test species), scale 0 to 10, 0 no effect, 10 complete control
[22] = Rate 2000 g/ha, Pre-emergence (as headed), scale 0 to 10
[23] = Rate 1000 g/ha, Pre-emergence (as headed), scale 0 to 10

CCn1c(=O)on(C(=O)N(c2ccccc2)C(C)C)c1=O [Compound 117]
Plant response rating, Wheat (winter) (winter wheat [1]; [7]): 30 | Plant response rating, Wheat (winter) (winter wheat [1]; [8]): 60 | Plant response rating, Wheat (winter) (winter wheat [1]; Rate 250 g/ha, 0 to 100 scale): 90 | Plant response rating, Barley (winter) (winter barley; [7]): 25 | Plant response rating, Barley (winter) (winter barley; [8]): 20 | Plant response rating, Barley (winter) (winter barley; Rate 250 g/ha, 0 to 100 scale): 30 | Wild oats plant response rating (wild oat [2]; [9]): 3 | Wild oats plant response rating (wild oat [2]; [10]): 3 | Wild oats plant response rating (0 to 10 scale) (wild oat [2]; Preemergence, Rate 125 g/ha, 0 is no effect, 10 is complete control): 6 | Plant response rating, Wild oats (wild oat [2]; Preemergence, scale of 0 to 10 where 0 is no effect and 10 is complete control): 10 | Wild oats plant response rating (wild oat [2]; [11]): 10 | Wild oats plant response rating (wild oat [2]; [12]): 0 | Plant response rating, Wild oats (wild oat [2]; Postemergence, scale 0 to 10, 0 is no effect, 10 is complete control): 4 | Wild oats plant response rating (wild oat [2]; [13]): 8 | Surinam grass plant response rating (surinam grass; Rate 64 g/ha): 80 | Surinam grass plant response rating (surinam grass; Rate 125 g/ha): 100 | Plant response rating, Surinam grass (surinam grass; Rate 500 g/ha): 100 | Plant response rating Johnsongrass (Johnson grass; [14]): 90 | Plant response rating Johnsongrass (Johnson grass; [15]): 90 | Plant response rating Johnsongrass (Johnson grass; Rate 500 g/ha): 100 | Tall Mallow plant response rating (tall mallow; Rate 64 g/ha): 40 | Tall Mallow plant response rating (tall mallow; Rate 125 g/ha): 65 | Plant response rating, Tall Mallow (tall mallow; Rate 500 g/ha): 100 | Plant response rating, Wild oat (wild oat [3]; [7]): 20 | Plant response rating, Wild oat (wild oat [3]; [8]): 20 | S. Flatsedge plant response rating (smallflower flatsedge; [16]): 0 | S. Flatsedge plant response rating (smallflower flatsedge; Pre-emergence, Rate 1000 g/ha, scale 0 to 10 (0 no effect, 10 complete control)): 0 | S. Flatsedge plant response rating (smallflower flatsedge; [17]): 0 | Plant response rating, S. Flatsedge (smallflower flatsedge; [18]): 0 | S. Flatsedge plant response rating (smallflower flatsedge; [19]): 0 | Plant response rating, S. Flatsedge (smallflower flatsedge; [20]): 0 | S. Flatsedge plant response rating (smallflower flatsedge; [21]): 0 | S. Flatsedge plant response rating (smallflower flatsedge; [22]): 4 | Plant response rating, Green foxtail (green foxtail; [7]): 50 | Plant response rating, Green foxtail (green foxtail; [8]): 60 | Plant response rating, Green foxtail (green foxtail; Rate 250 g/ha, 0 to 100 scale): 80 | Plant response rating, Alexandergrass (Alexandergrass; [14]): 90 | Plant response rating, Alexandergrass (Alexandergrass; [15]): 90 | Plant response rating, Alexandergrass (Alexandergrass; Rate 500 g/ha): 98 | Blackgrass plant response rating (blackgrass [4]; [9]): 9 | Blackgrass plant response rating (blackgrass [4]; Postemergence, Rate 250 g/ha, scale 0 to 10, 0 no effect, 10 complete control): 9 | Blackgrass plant response rating (blackgrass [4]; [10]): 8 | Plant response rating, Blackgrass (blackgrass [4]; Preemergence, Rate 125 g/ha, scale 0 to 10 (0 no effect, 10 complete control)): 8 | Plant response rating, Blackgrass (blackgrass [4]; Preemergence, Rate 250 g/ha, scale of 0 to 10 where 0 is no effect and 10 is complete control): 10 | Blackgrass plant response rating (blackgrass [4]; [11]): 10 | Blackgrass plant response rating (blackgrass [4]; [12]): 8 | Blackgrass plant response rating (blackgrass [4]; [13]): 9 | Barnyardgrass plant response rating (bamyardgrass; Postemergence, Rate 62 g/ha, scale 0 to 10, 0 is no effect, 10 is complete control): 0 | Barnyardgrass plant response rating (bamyardgrass; Rate 125 g/ha, Postemergence section (flood test species), scale 0 to 10, 0 no effect, 10 complete control): 0 | Barnyardgrass plant response rating (bamyardgrass; [19]): 0 | Plant response rating, Barnyardgrass (bamyardgrass; [20]): 0 | Barnyardgrass plant response rating (bamyardgrass; [21]): 3 | Barnyardgrass plant response rating (bamyardgrass; [23]): 0 | Barnyardgrass plant response rating (bamyardgrass; Rate 2000 g/ha, Pre-emergence (as headed), scale 0 to 10, 0 no effect, 10 complete control): 3 | Barnyardgrass plant response rating (bamyardgrass; flood test, listed under Postemergence, Rate 250 g/ha, scale 0 to 10, 0 no effect, 10 complete control): 2 | Plant response rating, I. Ryegrass (Italian ryegrass; [7]): 50 | Plant response rating, I. Ryegrass (Italian ryegrass; [8]): 45 | Plant response rating, I. Ryegrass (Italian ryegrass; Rate 250 g/ha, 0 to 100 scale): 85 | Plant response rating, Blackgrass (blackgrass [5]; [7]): 50 | Plant response rating, Blackgrass (blackgrass [5]; [8]): 50 | Plant response rating, Blackgrass (blackgrass [5]; Rate 250 g/ha, 0 to 100 scale): 60 | Plant response rating, Wheat (winter) (winter wheat [6]; Rate 62 g/ha, 0 to 100 scale): 0 | Plant response rating, Wheat (winter) (winter wheat [6]; Rate 125 g/ha, 0 to 100 scale): 10 | Plant response rating, Wheat (winter) (winter wheat [6]; Rate 250 g/ha, 0 to 100 scale (0 no effect, 100 complete control)): 25 | Rice plant response rating (rice; [16]): 0 | Rice plant response rating (rice; [17]): 0 | Plant response rating, Rice (rice; [18]): 0 | Rice plant response rating (rice; [19]): 0 | Plant response rating, Rice (rice; [20]): 0 | Rice plant response rating (rice; [21]): 0 | Rice plant response rating (rice; [23]): 0 | Rice plant response rating (rice; [22]): 0

— patent US6737383B1, “Herbicidal oxadiazolidines” (priority 1999, dated 2004)
